According to patent publication US20130040944A1, “MGLUR4 ALLOSTERIC POTENTIATORS, COMPOSITIONS, AND METHODS OF TREATING NEUROLOGICAL DYSFUNCTION” (VANDERBILT UNIVERSITY, priority 2009, published 2013):

Target: human mGluR4 (Homo sapiens, UniProt Q14833)
Assay: potentiation of human mGluR4 in transfected CHO cells, Ca2+-sensitive dye fluorescence, EC20 agonist
Conditions: CHO, read-out: % Glu Max

Sequence of human mGluR4 (Q14833 33-912): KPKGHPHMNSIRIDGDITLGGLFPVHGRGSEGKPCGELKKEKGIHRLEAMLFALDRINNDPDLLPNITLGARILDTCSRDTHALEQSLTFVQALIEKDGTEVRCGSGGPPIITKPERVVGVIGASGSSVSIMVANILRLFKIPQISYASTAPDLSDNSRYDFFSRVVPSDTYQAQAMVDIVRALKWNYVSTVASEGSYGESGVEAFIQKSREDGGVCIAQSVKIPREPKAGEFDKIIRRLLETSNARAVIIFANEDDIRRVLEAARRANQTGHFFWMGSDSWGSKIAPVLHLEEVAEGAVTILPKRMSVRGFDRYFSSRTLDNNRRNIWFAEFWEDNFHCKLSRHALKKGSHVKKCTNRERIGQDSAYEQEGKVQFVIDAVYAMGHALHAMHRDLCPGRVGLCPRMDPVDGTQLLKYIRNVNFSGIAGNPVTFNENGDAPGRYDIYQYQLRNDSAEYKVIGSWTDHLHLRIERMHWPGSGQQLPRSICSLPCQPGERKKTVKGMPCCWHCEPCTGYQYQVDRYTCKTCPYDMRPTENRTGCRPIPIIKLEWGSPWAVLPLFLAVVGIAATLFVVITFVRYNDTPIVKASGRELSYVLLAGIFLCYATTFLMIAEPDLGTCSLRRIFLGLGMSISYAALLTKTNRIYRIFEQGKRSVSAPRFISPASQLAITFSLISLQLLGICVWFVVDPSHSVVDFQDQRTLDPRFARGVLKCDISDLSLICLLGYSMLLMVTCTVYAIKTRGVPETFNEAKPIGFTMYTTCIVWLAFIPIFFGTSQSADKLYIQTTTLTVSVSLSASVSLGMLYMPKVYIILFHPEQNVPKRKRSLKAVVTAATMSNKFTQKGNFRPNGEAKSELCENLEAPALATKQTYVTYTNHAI

Question: How did the Emax turn out when O=C(Nc1ccn(S(=O)(=O)Cc2ccc(Cl)c(Cl)c2)c1)c1ccccn1 [Example 34] was run?
Answer: Its Emax is 159%.
